From article PMC12314052 (Nature Communications, 2025)
Where a chain is given by its changes, count along the chain named.

Tests used:
hM5 mAChR [1] = molecular target: T1, hM5 mAChR (Homo sapiens, UniProt P08912); assay: Inositol monophosphate (IP1) accumulation assay, ML380-ACh interaction; assay type: cell-based; conditions: WT M5 mAChR, CHO cells
T1 construct: expressed in transfected cells
T1 sequence (P08912 1-532): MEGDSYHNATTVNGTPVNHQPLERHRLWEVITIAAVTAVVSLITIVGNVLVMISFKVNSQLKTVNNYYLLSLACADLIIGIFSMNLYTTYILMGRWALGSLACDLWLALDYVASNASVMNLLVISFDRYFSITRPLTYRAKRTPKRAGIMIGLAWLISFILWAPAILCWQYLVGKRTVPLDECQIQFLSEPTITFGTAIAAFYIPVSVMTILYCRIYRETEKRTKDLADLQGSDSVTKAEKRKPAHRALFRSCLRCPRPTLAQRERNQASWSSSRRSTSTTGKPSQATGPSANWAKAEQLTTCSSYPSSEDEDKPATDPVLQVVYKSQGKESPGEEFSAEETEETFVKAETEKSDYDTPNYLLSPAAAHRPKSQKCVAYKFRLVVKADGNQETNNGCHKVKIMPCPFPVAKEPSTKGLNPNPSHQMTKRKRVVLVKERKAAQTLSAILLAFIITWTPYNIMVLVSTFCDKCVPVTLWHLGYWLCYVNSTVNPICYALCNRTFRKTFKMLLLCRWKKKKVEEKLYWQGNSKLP
Method: (§1) FlpIn CHO cells stably expressing either WT or mutant hM5 mAChR were seeded in clear, flat bottom 96-well plates at a density of 10,000−25,000 cells per well (depending on the cell line) one day prior to the assay. The optimal cell density for each line was chosen based on achieving an IP1 response that fell within the linear range of the IP1 standard curve. On the assay day, the medium was replaced with stimulation buffer (Hanks’ balanced salt solution (HBSS) containing 10 mM HEPES, 1.3 mM CaCl2, and 30 mM LiCl, pH 7.4) and allowed to incubate for 60 minutes at 37 °C before ligand stimulation. After this pre-incubation, the buffer was replaced, and cells were exposed to ligands for 60 minutes at 37 °C in a 5% CO2 atmosphere, with a total assay volume of 100 μL. Following the 60-minute stimulation, ligands were removed by rapid removal of buffer. Cells were lysed by freeze-thawing in 30 μL of stimulation buffer. IP1 accumulation was then quantified using the HTRF IP-One assay kit (Cisbio), with fluorescence measured on an EnVision multilabel plate reader (PerkinElmer).
(§2) All data were analysed using GraphPad Prism 10 (GraphPad Software, San Diego, CA). The interaction between orthosteric agonist and allosteric modulator in functional assays was analysed using an operational model of allosterism to determine functional modulation (log αβ) and affinity (pKB) parameters. Radioligand saturation binding experiments with [^3H]-NMS to determine Bmax and pKD values were determined using a one site – specific binding equation in Prism 10^31. For the radioligand binding interaction of orthosteric agonist with various concentrations of allosteric modulator, the data were fit to an allosteric ternary complex model to derive pKB and α binding cooperativity parameters. All affinity, potency, cooperativity, and efficacy parameters were estimated as logarithms. To ensure model convergence in all instances, allosteric parameters were determined from the respective allosteric models, which were globally fitted to all individual datasets for each allosteric modulator at each receptor construct. […]

hM5 mAChR [2] = molecular target: T2, hM5 mAChR (Homo sapiens, UniProt P08912, A113V/G152A/L156V); assay: as above; assay type: cell-based; conditions: M5 EH4 pocket mutant (A113V, G152A, L156V), CHO cells
T2 construct: expressed in transfected cells
T2 sequence (P08912 1-532 A113V/G152A/L156V): T1 sequence (P08912 1-532) with A113V, G152A, L156V
Method: as §1, §2

hM5 mAChR [3] = assay: as above; assay type: cell-based, human; conditions: ECV allosteric site alanine mutants of M5 mAChR, CHO cells
Method: as §1, §2

hM5 mAChR [4] = assay: [3H]-NMS equilibrium radioligand binding, interaction of ACh and allosteric modulator; design: species or system human
Method: FlpIn CHO cells stably expressing WT hM5 mAChR or mutants were plated at 25,000 cells per well in 96-well isoplates (PerkinElmer Life Sciences) and incubated overnight at 37 °C in a 5% CO2 incubator. The following day, the cells were washed with PBS and incubated in 20 mM HEPES, 100 mM NaCl, 10 mM MgCl2, pH 7.4. For saturation binding experiments, the cells were incubated with varying concentrations of the orthosteric antagonist [^3H]-N-methylscopolamine ([^3H]-NMS; specific activity, 70 Ci/mmol, Perkin Elmer) in a final volume of 100 μL for 6 hours at room temperature. […] Radioactivity was measured by adding 100 μL of Optiphase Supermix scintillation fluid (PerkinElmer) and counted using a MicroBeta^2 Plate Counter (PerkinElmer Life Sciences).
All data were analysed using GraphPad Prism 10 (GraphPad Software, San Diego, CA). The interaction between orthosteric agonist and allosteric modulator in functional assays was analysed using an operational model of allosterism to determine functional modulation (log αβ) and affinity (pKB) parameters. Radioligand saturation binding experiments with [^3H]-NMS to determine Bmax and pKD values were determined using a one site – specific binding equation in Prism 10^31. […]

ACh-bound M5 mAChR = molecular target: T3, ACh-bound M5 mAChR (Homo sapiens, UniProt P08912); assay: Binding affinity for the ACh-bound receptor (chemical probe statement); conditions: determined in this study and others
T3 sequence (P08912 1-532): T1 sequence (P08912 1-532)

[5] = cited from earlier work
[6] = test system: Gαq-coupled mAChRs (M1, M3, M5); conditions: M1, M3, M5 mAChRs ref 27; cited from earlier work

Row | SMILES | Activity of ML380 and cooperativity with ACh (hM5 mAChR [1]) | Change in ML380 affinity (pKB) compared to WT (hM5 mAChR [2]) | ML380 function at ECV alanine mutants (hM5 mAChR [3]) | ML380 cooperativity with ACh versus WT (hM5 mAChR [4]; M5/M2 TM1,7,h8 chimera) | ML380's ability to modulate ACh binding (hM5 mAChR [4]; M5/M2 TM2,3,4 and M5/M2 TM3,4,5 chimeras (swapping TM2-5)) | Kd (ACh-bound M5 mAChR) | CNS penetration [5] | Partition coefficients ([5]; limited in vivo utility ref 25) | Effect on ACh signalling [6]
1 | CCN(Cc1ccccc1C(F)(F)F)C(=O)C1CCN(S(=O)(=O)c2ccc3[nH]ncc3c2)CC1 [ML380, 1-((1H-indazol-5-yl)sulfoneyl)-N-ethyl-N-(2-(trifluoromethyl)benzyl)piperidine-4-carboxamide] | both agonism and positive cooperativity with ACh | no significant change in affinity | retained its ability to bind, activate, and modulate receptor function | increased | completely abolished | ~0.575 µM | penetrate the CNS | poor | 
2 | O=C1C(=O)N(Cc2ccc(Br)cc2)c2ccccc21 [VU0119498] |  |  |  |  |  |  |  |  | enhanced
